System: greasy skin
Assay: in vivo panel test with a cosmetic composition on greasy skin
Conditions: cosmetic composition comprising the compound

## CCCCCC1C(O)CCC1CC(=O)O (stereo not shown) [3-hydroxy-2-pentylcyclopentaneacetic acid]
  efficacy for treating greasy skin: revealed the efficacy of the compound for treating greasy skin
